Test results as given in patent publication EP2008653A1, “Serotonergic compounds for treating neuronal illnesses” (Charité-Universitätsmedizin Berlin, priority 2007, dated 2008).

System: fokalen Ischämie in Mäusen
Test: Mouse model of focal ischemia (30 min MCAo/reperfusion), overall outcome
Assay type: in vivo, Mäuse
Details: Mirtazapin 20 mg/kg i.p. starting 7 days after MCAo/reperfusion
Excerpt: Die erfindungsgemäßen neuroprotektiven und neuroregenerativen/neuroplastischen Effekte von SSRI auf neuronale Krankheiten wurde anhand eines anerkannten Tiermodells zur fokalen Ischämie in Mäusen untersucht. […] Tag nach der Induktion der Ischämie einsetzte.
Anschließend wurden die SRRI Effekte auf das Volumen der ischämischen Läsionen ausgewertet. Ferner wurden die Tiere Standard-Verhaltenstests unterzogen. Zudem wurden die Konzentrationen ausgewählter Neurotransmitter erfaßt.
Die Tierversuche wurden nach den Maßgaben des Tierschutzgesetzes in Übereinstimmung mit institutionellen und internationalen Richtlinien durchgeführt. Männliche 12936/SvEv-Mäuse (18-20 g, Bundesamt für Gesundheitsschutz Berlin) wurden in Gruppen von 4-5 Mäusen pro Käfig in Standardlaborkäfigen bei einer Umgebungstemperatur von 20-21°C bei einem 12 h-Licht-Dunkel-Rhythmus (8.00 Uhr/20.00 Uhr) mit freiem Zugang zu Futter und Wasser gehalten. Die Narkose der Mäuse erfolgte mit 1% Isofluran in 69% N20 und 30% 02 mit einem Narkoseverdampfer. Die Tiere wurden einer 30 min Fliamentokklusion der Arteria cerebri media (MCAo) unterworfen, wobei die Körpertemperatur und der regionale cerebrale Blutfluss wie beschrieben gemessen wurden (Endres et al., 1998). […]

CN1CCN2c3ncccc3Cc3ccccc3C2C1 (racemic) [Mirtazapin, (RS)-(±)-2-Methyl-1,2,3,4,10,14b-hexahydropyrazino [2,1-a]pyrido[2,3-c][2]benzazepin]
Ergebnisse (overall outcome in the MCAo model): entsprachen denjenigen, die mit Citalopram erreicht wurden
